Results taken from ChEMBL document CHEMBL1143244, “Conformational studies of 3-amino-1-alkyl-cyclopentane carboxamide CCR2 antagonists leading to new spirocyclic antagonists” (Bioorg Med Chem Lett, 2008).

Legend:
[1] = target: T1, C-C chemokine receptor type 2 (Homo sapiens, UniProt P41597); experiment: Displacement of [125I]MCP1 from human CCR2 expressed in human monocytes at 1 uM; assay type: cell-based
Target sequence in this assay (P41597 whole entry, looked up): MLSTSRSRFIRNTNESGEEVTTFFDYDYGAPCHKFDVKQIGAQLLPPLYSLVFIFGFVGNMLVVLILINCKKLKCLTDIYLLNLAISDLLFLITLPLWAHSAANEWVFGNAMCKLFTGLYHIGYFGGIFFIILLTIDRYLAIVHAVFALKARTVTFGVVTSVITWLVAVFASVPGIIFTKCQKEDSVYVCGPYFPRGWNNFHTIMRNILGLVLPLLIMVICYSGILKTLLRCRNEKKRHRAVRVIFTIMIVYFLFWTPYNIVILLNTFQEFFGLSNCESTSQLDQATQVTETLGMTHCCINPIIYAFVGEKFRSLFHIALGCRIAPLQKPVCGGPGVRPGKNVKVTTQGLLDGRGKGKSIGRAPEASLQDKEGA

[2] = target: T1, C-C chemokine receptor type 2; experiment: Displacement of [125I]MCP1 from human CCR2 expressed in human monocytes; assay type: cell-based
Target sequence in this assay (P41597 whole entry): as the sequence (P41597 whole entry, looked up) above

Row | Structure (SMILES) | inhibition [1] [%] | IC50 [2] [nM]
1 | C[C@H]1CN([C@@H]2CCC3(CCN(Cc4cc(F)cc(C(F)(F)F)c4)C3=O)C2)CC[C@@]12C=Cc1ccccc12 (some centres undefined) | 18 | –
2 | C[C@H]1CN([C@@H]2CC[C@@]3(CCO[C@@H]3OCc3cc(F)cc(C(F)(F)F)c3)C2)CC[C@@]12C=Cc1ccccc12 | – | 115
3 | CC(C)[C@]1(C(=O)NCc2cc(F)cc(C(F)(F)F)c2)CC[C@@H](N2CC[C@@]3(C=Cc4ccccc43)[C@@H](C)C2)C1 | – | 1.4
4 | C[C@H]1CN([C@@H]2CC[C@@]3(CCO[C@H]3OCc3cc(F)cc(C(F)(F)F)c3)C2)CC[C@@]12C=Cc1ccccc12 | – | 4.6
